From ChEMBL document CHEMBL4359822, “Design, synthesis of 4,5-diazafluorene derivatives and their anticancer activity via targeting telomeric DNA G-quadruplex” (Eur J Med Chem, 2019)
Active and inactive are the calls of the source. The rule behind the calls is not given here.

Tests used:
[1] = system: A549; assay: Antiproliferative activity against human A549 cells at 10 uM incubated for 36 hrs by CCK8 assay; format: functional, cell-based
[2] = system: AGS; assay: Antiproliferative activity against human AGS cells at 10 uM incubated for 36 hrs by CCK8 assay; format: functional, cell-based
[3] = system: HepG2; assay: Antiproliferative activity against human HepG2 cells at 10 uM incubated for 36 hrs by CCK8 assay; format: functional, cell-based
[4] = system: MCF7; assay: Antiproliferative activity against human MCF7 cells at 10 uM incubated for 36 hrs by CCK8 assay; format: functional, cell-based
[5] = Binding affinity to Tel-26nt G-rich DNA (unknown origin) assessed as change in melting temperature at 2 uM by UV-vis spectrophotometry (reference value: 38.33 +/- 0.07 degreeC)
[6] = Binding affinity to Tel-26nt G-rich DNA (unknown origin) assessed as change in melting temperature at 4 uM by UV-vis spectrophotometry (reference value: 38.33 +/- 0.07 degreeC)
[7] = Binding affinity to Tel-26nt G-rich DNA (unknown origin) assessed as change in melting temperature at 8 uM by UV-vis spectrophotometry (reference value: 38.33 +/- 0.07 degreeC)
[8] = Binding affinity to Tel-26nt G-rich DNA (unknown origin) at => 3 uM incubated for 24 hrs by EMSA
[9] = Binding affinity to Tel-26nt G-rich DNA (unknown origin) at 0.25 :1 to 6 : 1 ratio of test compound to DNA measured after each titration for 15 mins during 24 hrs incubation by circular dichroism analysis
[10] = Binding affinity to Tel-26nt G-rich DNA (unknown origin) at 4 to 16 uM measured after each titration for 15 mins during 24 hrs incubation by circular dichroism analysis
[11] = Binding affinity to Tel26nt double stranded DNA (unknown origin) at 4 to 16 uM measured after each titration for 15 mins during 24 hrs incubation by circular dichroism analysis
[12] = Binding affinity to Tel-26nt mutated-single-stranded DNA (unknown origin) at 4 to 16 uM measured after each titration for 15 mins during 24 hrs incubation by circular dichroism analysis
[13] = Binding affinity to Tel-26nt G-rich DNA (unknown origin) assessed as change in melting temperature by UV-vis spectrophotometry
[14] = Binding affinity to Tel-26nt G-rich DNA (unknown origin) incubated for 24 hrs by EMSA
[15] = system: A549; assay: Antiproliferative activity against human A549 cells incubated for 36 hrs by CCK8 assay; format: functional, cell-based; details: A549, 36 h
[16] = system: AGS; assay: Antiproliferative activity against human AGS cells incubated for 36 hrs by CCK8 assay; format: functional, cell-based
[17] = system: HepG2; assay: Antiproliferative activity against human HepG2 cells incubated for 36 hrs by CCK8 assay; format: functional, cell-based; details: HepG2, 36 h
[18] = system: MCF7; assay: Antiproliferative activity against human MCF7 cells incubated for 36 hrs by CCK8 assay; format: functional, cell-based; details: MCF7, 36 h
[19] = system: MRC5; assay: Antiproliferative activity against human MRC5 cells incubated for 36 hrs by CCK8 assay; format: cell-based; details: MRC5, 36 h
[20] = Selectivity index, ratio of IC50 for human MRC5 cells to IC50 for human A549 cells; format: toxicity; details: MRC5 cells versus A549 cells, read-out: Ratio IC50
[21] = Selectivity index, ratio of IC50 for human MRC5 cells to IC50 for human AGS cells; format: toxicity; details: MRC5 cells versus AGS cells, read-out: Ratio IC50
[22] = Selectivity index, ratio of IC50 for human MRC5 cells to IC50 for human HEPG2 cells
[23] = Selectivity index, ratio of IC50 for human MRC5 cells to IC50 for human MCF7 cells; format: toxicity; details: MRC5 cells versus MCF7 cells, read-out: Ratio IC50
[24] = biological target: Telomerase reverse transcriptase (Homo sapiens) (UniProt O14746); assay: Inhibition of telomerase activity in human A549 cells at 2 to 8 uM by TRAP assay; format: cell-based
[25] = system: A549; assay: Inhibition of cell migration in human A549 cells at 0.1 uM incubated for 48 hrs by wound healing assay relative to control; format: functional; details: A549, 48 h
[26] = system: A549; assay: Inhibition of cell migration in human A549 cells at 0.2 uM incubated for 48 hrs by wound healing assay relative to control; format: functional; details: A549, 48 h
[27] = system: A549; assay: Inhibition of cell migration in human A549 cells at 0.4 uM incubated for 48 hrs by wound healing assay relative to control; format: functional; details: A549, 48 h
[28] = system: AGS; assay: Inhibition of cell migration in human AGS cells at 0.1 uM incubated for 48 hrs by wound healing assay relative to control; format: functional
[29] = system: AGS; assay: Inhibition of cell migration in human AGS cells at 0.2 uM incubated for 48 hrs by wound healing assay relative to control; format: functional
[30] = system: AGS; assay: Inhibition of cell migration in human AGS cells at 0.4 uM incubated for 48 hrs by wound healing assay relative to control; format: functional
[31] = system: HepG2; assay: Inhibition of cell migration in human HepG2 cells at 0.1 uM incubated for 48 hrs by wound healing assay relative to control; format: functional; details: HepG2, 48 h
[32] = system: HepG2; assay: Inhibition of cell migration in human HepG2 cells at 0.2 uM incubated for 48 hrs by wound healing assay relative to control; format: functional; details: HepG2, 48 h
[33] = system: HepG2; assay: Inhibition of cell migration in human HepG2 cells at 0.4 uM incubated for 48 hrs by wound healing assay relative to control; format: functional; details: HepG2, 48 h
[34] = system: MCF7; assay: Inhibition of cell migration in human MCF7 cells at 0.1 uM incubated for 48 hrs by wound healing assay relative to control; format: functional; details: MCF7, 48 h
[35] = system: MCF7; assay: Inhibition of cell migration in human MCF7 cells at 0.2 uM incubated for 48 hrs by wound healing assay relative to control; format: functional; details: MCF7, 48 h
[36] = system: MCF7; assay: Inhibition of cell migration in human MCF7 cells at 0.4 uM incubated for 48 hrs by wound healing assay relative to control; format: functional; details: MCF7, 48 h
[37] = Binding affinity to Tel-26nt G-rich DNA (unknown origin) assessed as change in melting temperature at 2 uM by UV-vis spectrophotometry

Sequence of Telomerase reverse transcriptase (Homo sapiens) (O14746 whole entry): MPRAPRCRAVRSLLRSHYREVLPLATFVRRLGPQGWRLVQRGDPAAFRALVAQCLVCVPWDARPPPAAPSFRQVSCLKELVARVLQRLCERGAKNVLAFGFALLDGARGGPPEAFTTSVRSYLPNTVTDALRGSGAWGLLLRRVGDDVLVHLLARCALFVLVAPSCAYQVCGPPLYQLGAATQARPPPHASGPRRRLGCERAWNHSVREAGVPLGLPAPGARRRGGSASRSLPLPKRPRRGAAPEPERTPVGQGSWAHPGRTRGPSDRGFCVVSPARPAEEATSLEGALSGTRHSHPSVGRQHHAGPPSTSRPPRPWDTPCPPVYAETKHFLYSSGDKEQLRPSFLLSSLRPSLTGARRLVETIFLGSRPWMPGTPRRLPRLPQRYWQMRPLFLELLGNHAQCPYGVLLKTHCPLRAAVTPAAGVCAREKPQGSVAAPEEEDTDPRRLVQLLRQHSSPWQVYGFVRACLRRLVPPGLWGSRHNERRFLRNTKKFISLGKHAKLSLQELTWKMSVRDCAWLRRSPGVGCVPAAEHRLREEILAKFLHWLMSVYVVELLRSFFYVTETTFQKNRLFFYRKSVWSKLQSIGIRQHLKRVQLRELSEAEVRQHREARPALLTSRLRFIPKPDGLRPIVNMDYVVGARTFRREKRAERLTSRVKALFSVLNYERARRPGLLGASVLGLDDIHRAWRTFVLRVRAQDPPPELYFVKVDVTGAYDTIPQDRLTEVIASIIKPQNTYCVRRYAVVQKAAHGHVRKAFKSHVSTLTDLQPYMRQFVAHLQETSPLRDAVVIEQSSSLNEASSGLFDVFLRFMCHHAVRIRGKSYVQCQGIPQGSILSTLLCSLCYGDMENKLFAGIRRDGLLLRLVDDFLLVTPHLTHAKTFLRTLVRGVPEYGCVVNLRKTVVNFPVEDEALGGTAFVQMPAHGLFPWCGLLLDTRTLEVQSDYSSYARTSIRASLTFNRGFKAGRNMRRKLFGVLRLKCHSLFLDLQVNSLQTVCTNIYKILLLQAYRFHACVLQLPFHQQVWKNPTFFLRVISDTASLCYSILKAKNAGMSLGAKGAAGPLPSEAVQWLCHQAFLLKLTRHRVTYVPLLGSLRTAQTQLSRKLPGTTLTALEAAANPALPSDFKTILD

O=[N+]([O-])c1ccc(-n2cc(C=C3c4cccnc4-c4ncccc43)c(-c3ccc(F)cc3)n2)c([N+](=O)[O-])c1
growth inhibition (GI) [1]: Active | growth inhibition (GI) [2]: Active | growth inhibition (GI) [3]: Active | growth inhibition (GI) [4]: Active

O=C1C(=C2c3cccnc3-c3ncccc32)SC(=S)N1Cc1nnc(-c2ccc(Cl)cc2)o1
growth inhibition (GI) [1]: Active | growth inhibition (GI) [2]: Active | growth inhibition (GI) [3]: Active | growth inhibition (GI) [4]: Active

Cc1ccc(-c2nnc(CN3C(=O)C(=C4c5cccnc5-c5ncccc54)SC3=S)o2)cc1
growth inhibition (GI) [1]: Active | growth inhibition (GI) [2]: Active | growth inhibition (GI) [3]: Active | growth inhibition (GI) [4]: Active

Fc1ccc(-c2nn(Cc3ccccc3)cc2C=C2c3cccnc3-c3ncccc32)cc1
growth inhibition (GI) [1]: Active | growth inhibition (GI) [2]: Active | growth inhibition (GI) [3]: Active | growth inhibition (GI) [4]: Active

O=C1C(=C2c3cccnc3-c3ncccc32)SC(=S)N1Cc1nnc(-c2ccc(Br)cc2)o1
Tm [5]: 43.1 °C | Tm [6]: 56.1 °C | Tm [7]: 47 °C | Activity [8]: inactive | Activity [9]: Active | Activity [10]: Active | Activity [11]: inactive | Activity [12]: inactive | growth inhibition (GI) [1]: Active | growth inhibition (GI) [2]: Active | growth inhibition (GI) [3]: Active | growth inhibition (GI) [4]: Active | deltaTm [13]: Dose-dependent effect | Activity [14]: Dose-dependent effect

Clc1ccc(-c2nn(Cc3ccccc3)cc2C=C2c3cccnc3-c3ncccc32)cc1
growth inhibition (GI) [1]: Active | growth inhibition (GI) [2]: Active | growth inhibition (GI) [3]: Active | growth inhibition (GI) [4]: Active

CN(C)CCCn1cc(C=C2c3cccnc3-c3ncccc32)c(-c2ccc(F)cc2)n1
IC50 [15]: 3.44 µM | IC50 [16]: 2.93 µM | IC50 [17]: 3.32 µM | IC50 [18]: 6.7 µM | IC50 [19]: 5.93 µM | selectivity ratio [20]: 1.72 | selectivity ratio [21]: 2.02 | Ratio IC50 [22]: 1.79 | selectivity ratio [23]: 0.88 | Tm [5]: 44 °C | Tm [6]: 44 °C | Tm [7]: 62.7 °C | inhibition [24]: Active | inhibition at 0.1 µM [25]: 18.3% | inhibition at 0.2 µM [26]: 47.9% | inhibition at 0.4 µM [27]: 74.5% | inhibition at 0.1 µM [28]: 44.5% | inhibition at 0.2 µM [29]: 67.8% | inhibition at 0.4 µM [30]: 81.6% | inhibition at 0.1 µM [31]: 22.4% | inhibition at 0.2 µM [32]: 53.7% | inhibition at 0.4 µM [33]: 69.9% | inhibition at 0.1 µM [34]: 24.9% | inhibition at 0.2 µM [35]: 45.7% | inhibition at 0.4 µM [36]: 63.9% | Activity [8]: Active | growth inhibition (GI) [1]: Active | growth inhibition (GI) [2]: Active | growth inhibition (GI) [3]: Active | growth inhibition (GI) [4]: Active | deltaTm [13]: Dose-dependent effect | Activity [14]: Dose-dependent effect

Fc1ccc(-c2n[nH]cc2C=C2c3cccnc3-c3ncccc32)cc1
growth inhibition (GI) [1]: Active | growth inhibition (GI) [2]: Active | growth inhibition (GI) [3]: Active | growth inhibition (GI) [4]: Active

Cc1ccc(-c2n[nH]cc2C=C2c3cccnc3-c3ncccc32)cc1
growth inhibition (GI) [1]: Active | growth inhibition (GI) [2]: Active | growth inhibition (GI) [3]: Active | growth inhibition (GI) [4]: Active

O=[N+]([O-])c1ccc(-n2cc(C=C3c4cccnc4-c4ncccc43)c(-c3ccc(Br)cc3)n2)c([N+](=O)[O-])c1
growth inhibition (GI) [1]: Active | growth inhibition (GI) [2]: Active | growth inhibition (GI) [3]: Active | growth inhibition (GI) [4]: Active

Brc1ccc(-c2nn(Cc3ccccc3)cc2C=C2c3cccnc3-c3ncccc32)cc1
growth inhibition (GI) [1]: Active | growth inhibition (GI) [2]: Active | growth inhibition (GI) [3]: Active | growth inhibition (GI) [4]: Active

CN(C)CCCn1cc(C=C2c3cccnc3-c3ncccc32)c(-c2ccc(Cl)cc2)n1
IC50 [15]: 4.15 µM | IC50 [16]: 5.52 µM | IC50 [17]: 6.43 µM | IC50 [18]: 11.8 µM | IC50 [19]: 9.81 µM | selectivity ratio [20]: 2.36 | selectivity ratio [21]: 1.78 | Ratio IC50 [22]: 1.52 | selectivity ratio [23]: 0.83 | Tm [5]: 45.6 °C | Tm [6]: 45.7 °C | Tm [7]: 43.4 °C | inhibition [24]: Active | inhibition at 0.1 µM [25]: 21.2% | inhibition at 0.2 µM [26]: 54.5% | inhibition at 0.4 µM [27]: 78% | inhibition at 0.1 µM [28]: 37.5% | inhibition at 0.2 µM [29]: 56% | inhibition at 0.4 µM [30]: 80% | inhibition at 0.1 µM [31]: 19.4% | inhibition at 0.2 µM [32]: 43.2% | inhibition at 0.4 µM [33]: 62.3% | inhibition at 0.1 µM [34]: 17.9% | inhibition at 0.2 µM [35]: 41.2% | inhibition at 0.4 µM [36]: 54.8% | Activity [8]: Active | growth inhibition (GI) [1]: Active | growth inhibition (GI) [2]: Active | growth inhibition (GI) [3]: Active | growth inhibition (GI) [4]: Active | deltaTm [13]: Dose-dependent effect | ΔTm [37]: 4.82 °C | Activity [14]: Dose-dependent effect

O=C(O)CN1C(=O)C(=C2c3cccnc3-c3ncccc32)SC1=S
growth inhibition (GI) [1]: Active | growth inhibition (GI) [2]: Active | growth inhibition (GI) [3]: Active | growth inhibition (GI) [4]: Active

O=[N+]([O-])c1ccc(-n2cc(C=C3c4cccnc4-c4ncccc43)c(-c3ccc(Cl)cc3)n2)c([N+](=O)[O-])c1
growth inhibition (GI) [1]: Active | growth inhibition (GI) [2]: Active | growth inhibition (GI) [3]: Active | growth inhibition (GI) [4]: Active

Cc1ccc(-c2nn(-c3ccc([N+](=O)[O-])cc3[N+](=O)[O-])cc2C=C2c3cccnc3-c3ncccc32)cc1
growth inhibition (GI) [1]: Active | growth inhibition (GI) [2]: Active | growth inhibition (GI) [3]: Active | growth inhibition (GI) [4]: Active

Brc1ccc(-c2n[nH]cc2C=C2c3cccnc3-c3ncccc32)cc1
growth inhibition (GI) [1]: Active | growth inhibition (GI) [2]: Active | growth inhibition (GI) [3]: Active | growth inhibition (GI) [4]: Active

Cc1ccc(-c2nn(Cc3ccccc3)cc2C=C2c3cccnc3-c3ncccc32)cc1
growth inhibition (GI) [1]: Active | growth inhibition (GI) [2]: Active | growth inhibition (GI) [3]: Active | growth inhibition (GI) [4]: Active

Clc1ccc(-c2n[nH]cc2C=C2c3cccnc3-c3ncccc32)cc1
growth inhibition (GI) [1]: Active | growth inhibition (GI) [2]: Active | growth inhibition (GI) [3]: Active | growth inhibition (GI) [4]: Active
